Reference: PubChem BioAssay (NCI)
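Grown in 96-well plates, cells were treated for 48 hours with each compound at five concentrations. Insufficient inhibition: endpoint recorded as highest concentration tested. TGI: total growth inhibition.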

What was measured:
Assay in all cases: DTP human tumour cell line panel, 48 h
786-0 renal = tested on: 786-0 renal
A498 renal = tested on: A498 renal
A549 NSCLC = tested on: A549 NSCLC
ACHN renal = tested on: ACHN renal
BT-549 breast = tested on: BT-549 breast
CAKI-1 renal = tested on: CAKI-1 renal
CCRF-CEM leukemia = tested on: CCRF-CEM leukemia
COLO 205 colon = tested on: COLO 205 colon
DU-145 prostate = tested on: DU-145 prostate
EKVX NSCLC = tested on: EKVX NSCLC
HCC-2998 colon = tested on: HCC-2998 colon
HCT-116 colon = tested on: HCT-116 colon
HCT-15 colon = tested on: HCT-15 colon
HL-60(TB) leukemia = tested on: HL-60(TB) leukemia
HOP-62 NSCLC = tested on: HOP-62 NSCLC
HOP-92 NSCLC = tested on: HOP-92 NSCLC
HS 578T breast = tested on: HS 578T breast
HT29 colon = tested on: HT29 colon
IGROV1 ovarian = tested on: IGROV1 ovarian
K-562 leukemia = tested on: K-562 leukemia
KM12 colon = tested on: KM12 colon
LOX IMVI melanoma = tested on: LOX IMVI melanoma
M14 melanoma = tested on: M14 melanoma
MALME-3M melanoma = tested on: MALME-3M melanoma
MCF7 breast = tested on: MCF7 breast
MDA-MB-231 breast = tested on: MDA-MB-231 breast
MDA-MB-435 = tested on: MDA-MB-435
MDA-N = tested on: MDA-N
MOLT-4 leukemia = tested on: MOLT-4 leukemia
NCI-H226 lung = tested on: NCI-H226 lung
NCI-H23 lung = tested on: NCI-H23 lung
NCI-H460 lung = tested on: NCI-H460 lung
NCI-H522 lung = tested on: NCI-H522 lung
NCI/ADR-RES ovarian = tested on: NCI/ADR-RES ovarian
OVCAR-3 ovarian = tested on: OVCAR-3 ovarian
OVCAR-4 ovarian = tested on: OVCAR-4 ovarian
OVCAR-5 ovarian = tested on: OVCAR-5 ovarian
OVCAR-8 ovarian = tested on: OVCAR-8 ovarian
PC-3 prostate = tested on: PC-3 prostate
RPMI-8226 leukemia = tested on: RPMI-8226 leukemia
RXF 393 renal = tested on: RXF 393 renal
SF-268 CNS = tested on: SF-268 CNS
SF-295 CNS = tested on: SF-295 CNS
SK-MEL-28 melanoma = tested on: SK-MEL-28 melanoma
SK-MEL-5 melanoma = tested on: SK-MEL-5 melanoma
SK-OV-3 ovarian = tested on: SK-OV-3 ovarian
SN12C renal = tested on: SN12C renal
SNB-19 CNS = tested on: SNB-19 CNS
SW-620 colon = tested on: SW-620 colon
T-47D breast = tested on: T-47D breast
TK-10 renal = tested on: TK-10 renal
U251 CNS = tested on: U251 CNS
UACC-257 melanoma = tested on: UACC-257 melanoma
UACC-62 melanoma = tested on: UACC-62 melanoma
UO-31 renal = tested on: UO-31 renal
SF-539 CNS = tested on: SF-539 CNS
SK-MEL-2 melanoma = tested on: SK-MEL-2 melanoma
SNB-75 CNS = tested on: SNB-75 CNS
SR leukemia = tested on: SR leukemia

S=C(Nc1ccc2c(c1)Cc1ccccc1-2)Nc1ccc2c(c1)Cc1ccccc1-2
TGI (786-0 renal): > 100 µM
TGI (A498 renal): > 100 µM
TGI (A549 NSCLC): > 100 µM
TGI (ACHN renal): > 100 µM
TGI (BT-549 breast): > 100 µM
TGI (CAKI-1 renal): > 100 µM
TGI (CCRF-CEM leukemia): 27.2 µM
TGI (COLO 205 colon): > 100 µM
TGI (DU-145 prostate): > 100 µM
TGI (EKVX NSCLC): > 100 µM
TGI (HCC-2998 colon): > 100 µM
TGI (HCT-116 colon): > 100 µM
TGI (HCT-15 colon): > 100 µM
TGI (HL-60(TB) leukemia): 22.4 µM
TGI (HOP-62 NSCLC): > 100 µM
TGI (HOP-92 NSCLC): > 100 µM
TGI (HS 578T breast): > 100 µM
TGI (HT29 colon): > 100 µM
TGI (IGROV1 ovarian): > 100 µM
TGI (K-562 leukemia): 74.5 µM
TGI (KM12 colon): > 100 µM
TGI (LOX IMVI melanoma): > 100 µM
TGI (M14 melanoma): > 100 µM
TGI (MALME-3M melanoma): > 100 µM
TGI (MCF7 breast): > 100 µM
TGI (MDA-MB-231 breast): > 100 µM
TGI (MDA-MB-435): > 100 µM
TGI (MDA-N): > 100 µM
TGI (MOLT-4 leukemia): 39.5 µM
TGI (NCI-H226 lung): > 100 µM
TGI (NCI-H23 lung): > 100 µM
TGI (NCI-H460 lung): > 100 µM
TGI (NCI-H522 lung): > 100 µM
TGI (NCI/ADR-RES ovarian): > 100 µM
TGI (OVCAR-3 ovarian): > 100 µM
TGI (OVCAR-4 ovarian): > 100 µM
TGI (OVCAR-5 ovarian): > 100 µM
TGI (OVCAR-8 ovarian): > 100 µM
TGI (PC-3 prostate): > 100 µM
TGI (RPMI-8226 leukemia): > 100 µM
TGI (RXF 393 renal): > 100 µM
TGI (SF-268 CNS): > 100 µM
TGI (SF-295 CNS): > 100 µM
TGI (SK-MEL-28 melanoma): > 100 µM
TGI (SK-MEL-5 melanoma): > 100 µM
TGI (SK-OV-3 ovarian): > 100 µM
TGI (SN12C renal): > 100 µM
TGI (SNB-19 CNS): > 100 µM
TGI (SW-620 colon): > 100 µM
TGI (T-47D breast): > 100 µM
TGI (TK-10 renal): > 100 µM
TGI (U251 CNS): > 100 µM
TGI (UACC-257 melanoma): > 100 µM
TGI (UACC-62 melanoma): > 100 µM
TGI (UO-31 renal): > 100 µM

CCOC(=O)C1=C(C)N(c2ccc(C)cc2)C2(O)C=CC(=O)C3=C(O)c4ccccc4C(=O)C312 (stereo unspecified)
TGI (786-0 renal): > 100 µM
TGI (A498 renal): 67.9 µM
TGI (A549 NSCLC): > 100 µM
TGI (ACHN renal): 50.1 µM
TGI (BT-549 breast): 49.3 µM
TGI (CAKI-1 renal): > 100 µM
TGI (CCRF-CEM leukemia): > 100 µM
TGI (COLO 205 colon): > 100 µM
TGI (DU-145 prostate): 55.7 µM
TGI (EKVX NSCLC): > 100 µM
TGI (HCC-2998 colon): 59.4 µM
TGI (HCT-116 colon): > 100 µM
TGI (HCT-15 colon): > 100 µM
TGI (HL-60(TB) leukemia): 0.039 µM
TGI (HOP-62 NSCLC): > 100 µM
TGI (HOP-92 NSCLC): 45.4 µM
TGI (HT29 colon): 65.9 µM
TGI (IGROV1 ovarian): 45.5 µM
TGI (KM12 colon): > 100 µM
TGI (LOX IMVI melanoma): 96.8 µM
TGI (M14 melanoma): > 100 µM
TGI (MALME-3M melanoma): 43.1 µM
TGI (MCF7 breast): 63 µM
TGI (MDA-MB-231 breast): > 100 µM
TGI (MDA-MB-435): > 100 µM
TGI (MDA-N): 69.5 µM
TGI (MOLT-4 leukemia): 1.26 µM
TGI (NCI-H226 lung): > 100 µM
TGI (NCI-H23 lung): > 100 µM
TGI (NCI-H460 lung): > 100 µM
TGI (NCI-H522 lung): 34.7 µM
TGI (NCI/ADR-RES ovarian): > 100 µM
TGI (OVCAR-3 ovarian): > 100 µM
TGI (OVCAR-4 ovarian): 90.9 µM
TGI (OVCAR-5 ovarian): > 100 µM
TGI (OVCAR-8 ovarian): > 100 µM
TGI (PC-3 prostate): > 100 µM
TGI (RPMI-8226 leukemia): 53.5 µM
TGI (RXF 393 renal): 62.1 µM
TGI (SF-268 CNS): > 100 µM
TGI (SF-295 CNS): > 100 µM
TGI (SF-539 CNS): 44.1 µM
TGI (SK-MEL-2 melanoma): 94.1 µM
TGI (SK-MEL-28 melanoma): 60.2 µM
TGI (SK-MEL-5 melanoma): 42.1 µM
TGI (SK-OV-3 ovarian): > 100 µM
TGI (SN12C renal): > 100 µM
TGI (SNB-19 CNS): 80.2 µM
TGI (SNB-75 CNS): 68.6 µM
TGI (SR leukemia): 2.6 µM
TGI (SW-620 colon): 61.1 µM
TGI (TK-10 renal): > 100 µM
TGI (U251 CNS): > 100 µM
TGI (UACC-257 melanoma): 57.9 µM
TGI (UACC-62 melanoma): > 100 µM
TGI (UO-31 renal): 40 µM
